# Experimental data: PubChem BioAssay AID330 (DTP/NCI, 2004)
# Values joined by “and” are separate entries in the source; they are usually repeats but may differ in a detail not shown here. Equal entries are not always repeated. Toxic doses and inconclusive results are not listed.
# Tested on: P388 leukemia ip, CD2F1 mice, survival T/C
# Experiment: NCI In Vivo Anticancer Drug Screen. Data for tumor model P388 Leukemia (intraperitoneal) in CD2F1 (CDF1) mice
# Conditions: endpoint: median survival time, higher = longer survival
# Summary of the method: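 Mice carrying the transplanted tumor received test compound or vehicle. Survival was recorded in each group, and the value is the treated-group measurement divided by that of the vehicle-treated control group.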
# [1] = dose: 50.0 mg/kg/injection, schedule: Q01DX001 (ip), vehicle: saline with Tween-80
# [2] = dose: 100.0 mg/kg/injection, schedule: Q01DX001 (ip), vehicle: saline with Tween-80
# [3] = dose: 200.0 mg/kg/injection, schedule: Q01DX001 (ip), vehicle: saline with Tween-80
# [4] = dose: 60.0 mg/kg/injection, schedule: Q01DX005 (ip), vehicle: saline with Tween-80
# [5] = dose: 120.0 mg/kg/injection, schedule: Q01DX005 (ip), vehicle: saline with Tween-80
# [6] = dose: 240.0 mg/kg/injection, schedule: Q01DX005 (ip), vehicle: saline with Tween-80
# [7] = dose: 50.0 mg/kg/injection, schedule: Q01DX009 (ip), vehicle: saline with Tween-80
# [8] = dose: 100.0 mg/kg/injection, schedule: Q01DX009 (ip), vehicle: saline with Tween-80
# [9] = dose: 200.0 mg/kg/injection, schedule: Q01DX009 (ip), vehicle: saline with Tween-80
# [10] = dose: 100.0 mg/kg/injection, schedule: Q04DX003 (ip), vehicle: saline
# [11] = dose: 200.0 mg/kg/injection, schedule: Q04DX003 (ip), vehicle: saline
# [12] = dose: 50.0 mg/kg/injection, schedule: Q01DX005 (ip), vehicle: saline with Tween-80
# [13] = dose: 100.0 mg/kg/injection, schedule: Q01DX005 (ip), vehicle: saline with Tween-80
structure (smiles),measurement,setting,value
CCCCCCCC[N+]1(CC)CCCC1,T/C,"dose: 3.12 mg/kg/injection, schedule: Q01DX009 (ip), vehicle: saline",95 % of control
same,T/C,"dose: 6.25 mg/kg/injection, schedule: Q01DX009 (ip), vehicle: saline",95 % of control
same,T/C,"dose: 12.5 mg/kg/injection, schedule: Q01DX009 (ip), vehicle: saline",96 % of control
O=C1c2c(O)cccc2-c2nn(CCNCCO)c3ccc(NCCNCCO)c1c23,T/C,"dose: 3.12 mg/kg/injection, schedule: Q04DX002 (ip), vehicle: water",171 % of control
same,T/C,"dose: 6.25 mg/kg/injection, schedule: Q04DX002 (ip), vehicle: water",183 % of control
same,T/C,"dose: 12.5 mg/kg/injection, schedule: Q04DX002 (ip), vehicle: water",228 % of control and 235 % of control
same,T/C,"dose: 25.0 mg/kg/injection, schedule: Q04DX002 (ip), vehicle: water",184 % of control and 285 % of control and 588 % of control
same,T/C,"dose: 50.0 mg/kg/injection, schedule: Q04DX002 (ip), vehicle: water",88 % of control
same,T/C,"dose: 100.0 mg/kg/injection, schedule: Q04DX002 (ip), vehicle: water",190 % of control
O=C1C(CO)NC(=S)N1c1ccccc1 (configuration not stated),T/C,"dose: 12.5 mg/kg/injection, schedule: Q01DX001 (ip), vehicle: saline with Tween-80",109 % of control
same,T/C,"dose: 25.0 mg/kg/injection, schedule: Q01DX001 (ip), vehicle: saline with Tween-80",102 % of control
same,T/C,[1],97 % of control
same,T/C,[2],105 % of control
same,T/C,[3],102 % of control
CC1=CC(=O)C(O)C2(C)C1CC1OC(=O)C(OC(=O)CC(C)(C)O)C3C(C)C(O)C4(O)OCC13C42 (configuration not stated),T/C,"dose: 0.5 mg/kg/injection, schedule: Q01DX009 (ip), vehicle: saline + alcohol",115 % of control
same,T/C,"dose: 1.0 mg/kg/injection, schedule: Q01DX009 (ip), vehicle: saline + alcohol",118 % of control
same,T/C,"dose: 2.0 mg/kg/injection, schedule: Q01DX009 (ip), vehicle: saline + alcohol",119 % of control
same,T/C,"dose: 8.0 mg/kg/injection, schedule: Q01DX009 (ip), vehicle: saline + alcohol",118 % of control
COC(=O)CC1(C(=O)OC)C2=C(c3ccccc3CC2)N2CCCC21 (configuration not stated),T/C,"dose: 11.25 mg/kg/injection, schedule: Q01DX009 (ip), vehicle: Klucel (hydroxypropylcellulose) (HPC)",110 % of control
same,T/C,"dose: 22.5 mg/kg/injection, schedule: Q01DX009 (ip), vehicle: Klucel (hydroxypropylcellulose) (HPC)",110 % of control
same,T/C,"dose: 45.0 mg/kg/injection, schedule: Q01DX009 (ip), vehicle: Klucel (hydroxypropylcellulose) (HPC)",102 % of control
same,T/C,"dose: 90.0 mg/kg/injection, schedule: Q01DX009 (ip), vehicle: Klucel (hydroxypropylcellulose) (HPC)",112 % of control
O=C1C=C(CCC2=CC(=O)c3ccccc3C2=O)C(=O)c2ccccc21,T/C,[4],100 % of control
same,T/C,[5],94 % of control
COC(=O)Nc1nc2ccc(C3c4c(n[nH]c4C)CC(C)(O)C3C(C)=O)cc2[nH]1 (configuration not stated),T/C,[4],98 % of control
same,T/C,[5],101 % of control
same,T/C,[6],101 % of control
COc1cc([C@@H]2Oc3c(OC)cc4ccc(=O)oc4c3O[C@H]2CO)ccc1O,T/C,"dose: 200.0 mg/kg/injection, schedule: Q01DX005 (ip), vehicle: saline + alcohol",87 % of control
same,T/C,"dose: 300.0 mg/kg/injection, schedule: Q01DX005 (ip), vehicle: saline + alcohol",94 % of control
CC[N+]1(CC)c2ccccc2CC1C (configuration not stated),T/C,"dose: 6.25 mg/kg/injection, schedule: Q01DX001 (ip), vehicle: saline",97 % of control
same,T/C,"dose: 12.5 mg/kg/injection, schedule: Q01DX001 (ip), vehicle: saline",101 % of control
same,T/C,"dose: 25.0 mg/kg/injection, schedule: Q01DX001 (ip), vehicle: saline",104 % of control
NC(=Nc1ccc(Cl)cc1)N/N=C/c1ccc2c(c1)Cc1ccccc1-2,T/C,"dose: 25.0 mg/kg/injection, schedule: Q04DX002 (ip), vehicle: saline with Tween-80",106 % of control
same,T/C,"dose: 50.0 mg/kg/injection, schedule: Q04DX002 (ip), vehicle: saline with Tween-80",106 % of control
same,T/C,"dose: 100.0 mg/kg/injection, schedule: Q04DX002 (ip), vehicle: saline with Tween-80",107 % of control
NC(=O)NC(C/[N+]([O-])=N/O)C(=O)O (configuration not stated),T/C,"dose: 12.5 mg/kg/injection, schedule: Q01DX009 (ip), vehicle: water",100 % of control
same,T/C,"dose: 25.0 mg/kg/injection, schedule: Q01DX009 (ip), vehicle: water",96 % of control
same,T/C,"dose: 50.0 mg/kg/injection, schedule: Q01DX009 (ip), vehicle: water",98 % of control
same,T/C,"dose: 100.0 mg/kg/injection, schedule: Q01DX009 (ip), vehicle: water",98 % of control
Cc1c(N=Nc2ccccc2C(F)(F)F)c(-c2ccccc2)nn1C(=S)S,T/C,[2],89 % of control
same,T/C,[3],90 % of control
same,T/C,"dose: 400.0 mg/kg/injection, schedule: Q01DX001 (ip), vehicle: saline with Tween-80",101 % of control
CCN(CC)C(=S)Oc1cc2oc(=O)cc(C)c2cc1Cl,T/C,[7],98 % of control
same,T/C,[8],100 % of control
same,T/C,[9],100 % of control
OCC(O)CCBr (configuration not stated),T/C,"dose: 12.5 mg/kg/injection, schedule: Q01DX009 (ip), vehicle: saline with Tween-80",107 % of control
same,T/C,"dose: 25.0 mg/kg/injection, schedule: Q01DX009 (ip), vehicle: saline with Tween-80",107 % of control
same,T/C,[7],114 % of control and 96 % of control
same,T/C,[8],89 % of control
same,T/C,[10],118 % of control
same,T/C,[9],95 % of control
same,T/C,[11],122 % of control
same,T/C,"dose: 264.0 mg/kg/injection, schedule: Q01DX009 (ip), vehicle: saline sonified",159 % of control
same,T/C,"dose: 264.0 mg/kg/injection, schedule: Q04DX003 (ip), vehicle: saline",110 % of control
same,T/C,"dose: 400.0 mg/kg/injection, schedule: Q01DX009 (ip), vehicle: saline sonified",181 % of control
same,T/C,"dose: 600.0 mg/kg/injection, schedule: Q01DX009 (ip), vehicle: saline sonified",186 % of control
same,T/C,"dose: 600.0 mg/kg/injection, schedule: Q04DX003 (ip), vehicle: saline",115 % of control
CCOC(=O)Nc1cc2c(c(N)n1)N=C(c1ccccc1)C(C)N2 (configuration not stated),T/C,"dose: 0.5 mg/kg/injection, schedule: Q01DX005 (ip), vehicle: saline",123 % of control
same,T/C,"dose: 0.75 mg/kg/injection, schedule: Q01DX005 (ip), vehicle: saline",121 % of control
same,T/C,"dose: 1.0 mg/kg/injection, schedule: Q01DX005 (ip), vehicle: saline",171 % of control
CC(/C=N\Nc1ccc(Cl)cc1)=N/NC(=O)C[N+](C)(C)C,T/C,"dose: 100.0 mg/kg/injection, schedule: Q04DX002 (ip), vehicle: saline",101 % of control
same,T/C,"dose: 200.0 mg/kg/injection, schedule: Q04DX002 (ip), vehicle: saline",100 % of control
same,T/C,"dose: 400.0 mg/kg/injection, schedule: Q04DX002 (ip), vehicle: saline",92 % of control
Cc1cccc(/N=C/c2ccccc2O)n1,T/C,"dose: 50.0 mg/kg/injection, schedule: Q01DX009 (ip), vehicle: Klucel (hydroxypropylcellulose) (HPC)",91 % of control
same,T/C,"dose: 100.0 mg/kg/injection, schedule: Q01DX009 (ip), vehicle: Klucel (hydroxypropylcellulose) (HPC)",86 % of control
CNC(=O)OCC1=C([Si](C)(C)C)C(=O)C(OC)=C(OC)C1=O,T/C,[12],98 % of control
same,T/C,[13],100 % of control
CCOC(=O)C1=C(Nc2ccc(F)cc2)C(=O)N(CC)C1,T/C,[4],100 % of control
same,T/C,[5],102 % of control
same,T/C,[6],93 % of control
CCCNC(=S)N/N=C\C(C)=N\Nc1ccc(Cl)cc1,T/C,[10],95 % of control
same,T/C,[11],96 % of control
same,T/C,"dose: 400.0 mg/kg/injection, schedule: Q04DX003 (ip), vehicle: saline",97 % of control
CCCCCn1c(CN2CCCCC2)nc2c1-c1ccccc1C(=O)C2=O,T/C,[1],100 % of control
same,T/C,[2],100 % of control
same,T/C,[3],100 % of control
CC1=C/C(=C(\c2ccccc2)c2cc(C)c(O)c(CNCC(=O)O)c2)C=C(CNCC(=O)O)C1=O,T/C,"dose: 60.0 mg/kg/injection, schedule: Q01DX005 (ip), vehicle: saline",95 % of control
same,T/C,"dose: 120.0 mg/kg/injection, schedule: Q01DX005 (ip), vehicle: saline",103 % of control
same,T/C,"dose: 240.0 mg/kg/injection, schedule: Q01DX005 (ip), vehicle: saline",108 % of control
CCN(CC)CCCNCc1cc(-c2ccccc2)nc2cc(Cl)ccc12,T/C,[12],102 % of control
same,T/C,[13],100 % of control
same,T/C,"dose: 200.0 mg/kg/injection, schedule: Q01DX005 (ip), vehicle: saline with Tween-80",100 % of control
